Experimental data reported in ChEMBL document CHEMBL1133278, “1-[2-[(Heteroarylmethoxy)aryl]carbamoyl]indolines are selective and orally active 5-HT2C receptor inverse agonists” (Bioorg Med Chem Lett, 2000).

Tests used:
[1] = target: T1, 5-hydroxytryptamine receptor 2C (Homo sapiens, UniProt P28335); assay: In vitro binding affinity at human cloned 5-hydroxytryptamine 2C receptor of HEK293 cells by [3H]mesulergine displacement.; format: cell-based
T1 sequence (P28335 whole entry): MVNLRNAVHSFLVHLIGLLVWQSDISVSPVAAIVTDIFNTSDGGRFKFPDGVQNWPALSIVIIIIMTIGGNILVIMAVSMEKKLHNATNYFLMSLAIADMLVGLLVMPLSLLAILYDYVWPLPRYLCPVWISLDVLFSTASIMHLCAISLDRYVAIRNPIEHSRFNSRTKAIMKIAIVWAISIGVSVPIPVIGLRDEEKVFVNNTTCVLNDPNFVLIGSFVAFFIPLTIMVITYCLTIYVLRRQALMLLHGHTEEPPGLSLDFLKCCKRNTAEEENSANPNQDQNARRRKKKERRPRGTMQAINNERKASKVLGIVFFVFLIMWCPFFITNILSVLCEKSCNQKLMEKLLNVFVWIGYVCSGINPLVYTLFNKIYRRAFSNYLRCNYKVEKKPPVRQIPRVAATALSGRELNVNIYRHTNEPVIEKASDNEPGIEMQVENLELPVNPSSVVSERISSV

[2] = target: 5-hydroxytryptamine receptor 2A (Homo sapiens, UniProt P28223); assay: In vitro binding affinity at human cloned 5-hydroxytryptamine 2A receptor of HEK293 cells by [3H]ketanserin displacement.; format: cell-based
[3] = target: Serotonin receptor (2b and 2c) (Homo sapiens) (UniProt P41595+P28335); assay: Selectivity at serotonin 5-HT 2C receptor compared to serotonin 5-HT 2B receptor; format: protein assay
[4] = target: Serotonin 2 receptors; 5-HT2a & 5-HT2c (Homo sapiens) (UniProt P28223+P28335); assay: Selectivity at 5-HT 2C receptor compared to serotonin 5-HT 2A receptor; format: protein assay
[5] = target: 5-hydroxytryptamine receptor 2B (Homo sapiens, UniProt P41595); assay: In vitro binding affinity at human cloned 5-hydroxytryptamine 2B receptor of HEK293 cells by [3H]5-HT displacement.; format: cell-based
[6] = test system: Rattus norvegicus; assay: Dose required to reverse mCPP induced hypolocomotion by 50% at 7 mg/kg, ip administration 30 min pretest in rat; format: functional; conditions: po, 0.5 h, read-out: ID50 (the source's name)
[7] = test system: Rattus norvegicus; assay: Percent reversal of mCPP induced hypolocomotion after peroral administration at 5 mg/kg in rat; format: functional; conditions: route oral

Chain of Serotonin 2 receptors; 5-HT2a & 5-HT2c (Homo sapiens) (P28223 whole entry, looked up, one chain of several): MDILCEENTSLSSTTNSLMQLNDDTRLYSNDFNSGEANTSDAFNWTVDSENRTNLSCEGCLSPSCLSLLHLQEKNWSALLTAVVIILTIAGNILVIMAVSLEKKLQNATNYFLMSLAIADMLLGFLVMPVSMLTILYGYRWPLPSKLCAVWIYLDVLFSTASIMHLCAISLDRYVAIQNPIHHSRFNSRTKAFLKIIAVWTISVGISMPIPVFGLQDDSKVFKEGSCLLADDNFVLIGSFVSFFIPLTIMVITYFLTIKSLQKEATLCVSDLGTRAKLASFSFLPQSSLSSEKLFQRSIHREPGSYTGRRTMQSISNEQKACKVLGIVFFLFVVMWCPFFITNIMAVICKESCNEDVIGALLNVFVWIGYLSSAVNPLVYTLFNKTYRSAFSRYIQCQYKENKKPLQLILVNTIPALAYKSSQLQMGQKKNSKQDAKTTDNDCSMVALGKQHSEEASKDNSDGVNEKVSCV
Chain of 5-hydroxytryptamine receptor 2A (P28223 whole entry): as the sequence (P28223 whole entry, looked up, one chain of several) above
Chain of 5-hydroxytryptamine receptor 2B (P41595 whole entry): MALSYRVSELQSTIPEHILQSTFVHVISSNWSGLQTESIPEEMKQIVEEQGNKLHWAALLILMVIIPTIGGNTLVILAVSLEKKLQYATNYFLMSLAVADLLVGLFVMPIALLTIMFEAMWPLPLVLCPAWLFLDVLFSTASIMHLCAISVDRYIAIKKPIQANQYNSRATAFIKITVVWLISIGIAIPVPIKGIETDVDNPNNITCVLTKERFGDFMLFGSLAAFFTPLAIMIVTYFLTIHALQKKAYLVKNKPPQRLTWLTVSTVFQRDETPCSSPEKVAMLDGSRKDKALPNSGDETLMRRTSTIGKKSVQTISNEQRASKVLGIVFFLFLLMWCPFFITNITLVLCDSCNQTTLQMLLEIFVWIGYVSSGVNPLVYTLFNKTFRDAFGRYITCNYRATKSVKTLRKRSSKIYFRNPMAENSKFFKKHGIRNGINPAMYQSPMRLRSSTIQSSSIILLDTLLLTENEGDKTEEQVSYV

Row | Ki [1] | Ki [2] | Selectivity [3] | Selectivity [4] | Ki [5] | SMILES | ED50 [6] | Reversal [7]
1 | 6.31 nM | 5010 nM | 60 | 800 | 398 nM | O=C(Nc1ccc(OCc2ccccn2)nc1)N1CCc2cc(C(F)(F)F)ccc21 | 1.6 mg/kg | –
2 | 10 nM | 2000 nM | 2 | 200 | 20 nM | Cc1cc2c(cc1C(F)(F)F)N(C(=O)Nc1ccc(OCCc3ccccn3)nc1)CC2 | – | –
3 | 7.94 nM | 251 nM | 30 | 30 | 251 nM | O=C(Nc1ccc(OCc2ccccn2)nc1)N1CCc2ccc(C(F)(F)F)cc21 | – | –
4 | 5.01 nM | 100 nM | 40 | 20 | 200 nM | Cc1cc2c(cc1C(F)(F)F)N(C(=O)Nc1ccc(COc3ccccn3)nc1)CC2 | – | –
5 | 2.51 nM | > 794 nM | 40 | > 320 | 100 nM | Cc1cc2c(cc1Cl)N(C(=O)Nc1ccc(OCc3ccccn3)nc1)CC2 | – | 41%
6 | 15.8 nM | 2510 nM | 30 | 160 | 501 nM | O=C(Nc1ccc(OCc2ccccn2)nc1)N1CCc2cc(Br)ccc21 | 2.4 mg/kg | –
7 | 0.501 nM | 631 nM | 60 | 1300 | 31.6 nM | Cc1cc2c(cc1C(F)(F)F)N(C(=O)Nc1ccc(OCc3ccccn3)nc1)CC2 | 1 mg/kg | –
8 | 79.4 nM | 5010 nM | 13 | 60 | 1000 nM | O=C(Nc1ccc(OCc2ccccn2)nc1)N1CCc2c(Cl)cccc21 | – | –
9 | 31.6 nM | > 5010 nM | 30 | > 160 | 1000 nM | O=C(Nc1ccc(OCc2ccccn2)nc1)N1CCc2cc(Cl)ccc21 | – | –

More lines, now with the values behind:

Row | SMILES | Ki [1] | Ki [2] | Selectivity [3] | Selectivity [4] | Ki [5] | ED50 [6] | Reversal [7]
10 | Cc1cc2c(cc1C(F)(F)F)N(C(=O)Nc1ccc(CCc3ccccn3)nc1)CC2 | 3.16 nM | 158 nM | 6 | 50 | 20 nM | – | –
11 | Cc1cc2c(cc1C(F)(F)F)N(C(=O)Nc1ccc(OCc3cnccn3)nc1)CC2 | 0.501 nM | 316 nM | 20 | 630 | 10 nM | – | 58%
12 | Cc1cc2c(cc1Cl)N(C(=O)Nc1ccc(OCc3nccn3C)nc1)CC2 | 5.01 nM | 251 nM | 2.5 | 50 | 12.6 nM | – | –
13 | Cc1cccc(COc2ccc(NC(=O)N3CCc4cc(C)c(C(F)(F)F)cc43)cn2)n1 | 6.31 nM | 1000 nM | 4 | 160 | 25.1 nM | – | –
14 | Cc1cc2c(cc1C(F)(F)F)N(C(=O)Nc1ccc(OCc3cncn3C)nc1)CC2 | 3.98 nM | 100 nM | 2 | 25 | 6.31 nM | – | –
15 | Cc1cc2c(cc1Cl)N(C(=O)Nc1ccc(OCc3cccnc3)nc1)CC2 | 25.1 nM | > 794 nM | 1 | > 30 | 25.1 nM | – | –
16 | Cc1cc2c(cc1Cl)N(C(=O)Nc1ccc(OCc3nccs3)nc1)CC2 | 5.01 nM | > 794 nM | 20 | > 160 | 100 nM | – | 2%
17 | Cc1cc2c(cc1C(F)(F)F)N(C(=O)Nc1cnc(OCc3ccccn3)c(C)c1)CC2 | 0.398 nM | 39.8 nM | 20 | 100 | 7.94 nM | 0.3 mg/kg | –
18 | Cc1cc2c(cc1Cl)N(C(=O)Nc1ccc(OCc3ccncc3)nc1)CC2 | 1.26 nM | 79.4 nM | 6 | 60 | 7.94 nM | – | –
19 | Cc1cc2c(cc1C(F)(F)F)N(C(=O)Nc1ccc(OCc3ccccn3)nn1)CC2 | 5.01 nM | 251 nM | 15 | 50 | 79.4 nM | – | –
20 | Cc1cc2c(cc1C(F)(F)F)N(C(=O)Nc1ccc(OCc3ncccc3C)nc1)CC2 | 3.98 nM | 158 nM | 4 | 40 | 15.8 nM | – | –
21 | Cc1cc2c(cc1C(F)(F)F)N(C(=O)Nc1ccc(OCc3ccccn3)cc1)CC2 | 2.51 nM | 398 nM | 10 | 160 | 25.1 nM | – | 84%
